Assay results as given in US7485455B2, “Nucleic acid encoding sodium channel subunit” (Wisconsin Alumni Research Foundation, priority 2002, dated 2009).

Tested on: untransfected HEK cells (endogenous currents)
Settings: incubation with mexiletine 100 μM for 24 hours, n=10, not significantly increased

Structure (SMILES): Cc1cccc(C)c1OCC(C)N (stereo not shown) [mexiletine]
- endogenous current density: 1.1±0.4 pA/pF
